Experimental data from ChEMBL document CHEMBL1127966, “Acyclic NK1 antagonists: Replacements for the benzhydryl group” (Bioorg Med Chem Lett, 1994).
pIC50: −log10 of the molar value.

How the values were obtained:
Substance-P receptor = Substance-P receptor (Homo sapiens, UniProt P25103); assay: Binding affinity of compound was determined from inhibition of [125I]- substance P binding to the hNK1 receptor in CHO cells; type: cell-based
[1] = molecular target: T1, Neuromedin-K receptor (Homo sapiens) (UniProt P29371); assay: Binding affinity to Tachykinin receptor 3
T1 sequence (whole entry): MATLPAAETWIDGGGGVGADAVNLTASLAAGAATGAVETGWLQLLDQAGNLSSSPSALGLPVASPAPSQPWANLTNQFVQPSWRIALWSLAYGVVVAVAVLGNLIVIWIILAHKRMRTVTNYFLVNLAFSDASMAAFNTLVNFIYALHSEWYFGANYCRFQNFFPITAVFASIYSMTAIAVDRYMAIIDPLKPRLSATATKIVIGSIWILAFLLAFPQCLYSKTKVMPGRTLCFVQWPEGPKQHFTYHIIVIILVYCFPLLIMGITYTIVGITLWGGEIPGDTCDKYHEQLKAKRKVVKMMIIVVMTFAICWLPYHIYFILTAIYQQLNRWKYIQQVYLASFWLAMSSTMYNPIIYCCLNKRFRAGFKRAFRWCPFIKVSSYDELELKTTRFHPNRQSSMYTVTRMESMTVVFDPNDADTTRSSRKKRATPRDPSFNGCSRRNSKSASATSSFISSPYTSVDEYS

[2] = molecular target: T2, Substance-K receptor (Homo sapiens) (UniProt P21452); assay: Binding affinity to Tachykinin receptor 2
T2 sequence (whole entry): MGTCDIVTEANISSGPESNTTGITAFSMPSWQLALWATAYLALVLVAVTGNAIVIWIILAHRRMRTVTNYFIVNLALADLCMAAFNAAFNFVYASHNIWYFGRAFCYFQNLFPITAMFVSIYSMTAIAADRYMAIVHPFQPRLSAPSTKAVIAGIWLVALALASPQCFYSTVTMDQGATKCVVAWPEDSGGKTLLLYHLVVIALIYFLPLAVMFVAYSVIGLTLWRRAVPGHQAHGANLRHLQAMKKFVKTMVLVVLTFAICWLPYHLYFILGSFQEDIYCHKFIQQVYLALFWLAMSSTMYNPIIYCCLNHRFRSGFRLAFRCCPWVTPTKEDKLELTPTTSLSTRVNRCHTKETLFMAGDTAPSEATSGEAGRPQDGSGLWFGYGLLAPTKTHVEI

Chain of Substance-P receptor (P25103 whole entry): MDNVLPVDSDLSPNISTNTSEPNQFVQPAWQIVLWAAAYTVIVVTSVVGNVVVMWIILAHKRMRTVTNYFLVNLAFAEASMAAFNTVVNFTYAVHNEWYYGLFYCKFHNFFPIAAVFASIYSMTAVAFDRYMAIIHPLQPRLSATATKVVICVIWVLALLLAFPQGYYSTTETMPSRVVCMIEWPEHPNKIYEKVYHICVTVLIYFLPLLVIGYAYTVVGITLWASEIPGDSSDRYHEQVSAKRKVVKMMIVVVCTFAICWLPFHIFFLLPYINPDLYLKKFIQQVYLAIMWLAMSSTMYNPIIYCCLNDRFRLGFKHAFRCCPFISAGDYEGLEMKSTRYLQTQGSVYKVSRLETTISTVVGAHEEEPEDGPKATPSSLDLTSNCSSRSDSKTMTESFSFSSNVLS

| Compound | pIC50 (Substance-P receptor) | Affinity [1] [µM] | Affinity [2] [µM] |
| --- | --- | --- | --- |
| Cc1cc(C)cc(COCC(N)Cc2ccccc2)c1 (centres undefined) | 6.32 | – | – |
| Cc1cc(C)cc(COCC(N)Cc2cccc3ccccc23)c1 (centres undefined) | 5.94 | – | – |
| Cc1cc(C)cc(COCC(N)C2c3ccccc3C=Cc3ccccc32)c1 (centres undefined) | 7.10 | – | – |
| Cc1cc(C)cc(COCC(N)C2c3ccccc3CCc3ccccc32)c1 (centres undefined) | 7.03 | – | – |
| Cc1cc(C)cc(COC[C@@H](N)c2ccccc2)c1 | 7.26 | > 10 | > 10 |
| Cc1cc(C)cc(COCC(N)C(c2ccccc2)c2ccccc2)c1 (centres undefined) | 8.03 | – | – |
| Cc1cc(C)cc(COC[C@H](N)c2ccccc2)c1 | 5.60 | – | – |
